In the NIST ThermoML archive (doi:10.1016/j.jct.2017.07.013):

Key:
[1] = 101.3 kPa, Liquid; for speed of sound: Frequency=3 MHz, Single path-length method; for mass density: Vibrating tube method
[2] = refractive index (Na D-line) (dimensionless); conditions: 101.3 kPa, Liquid, Standard Abbe refractometry
[3] = xn = mol fraction of the nth substance listed; conditions: 101.3 kPa, Liquid, x2 = 0; for speed of sound: Frequency=3 MHz, Single path-length method; for mass density: Vibrating tube method
[4] = refractive index (Na D-line) (dimensionless); xn = mol fraction of the nth substance listed; conditions: 101.3 kPa, Liquid, Standard Abbe refractometry, x2 = 0

CCCC[n+]1ccn(C)c1.O=S(=O)([N-]S(=O)(=O)C(F)(F)F)C(F)(F)F
Conditions | mass density, [1] [kg/m3] | refractive index, [2] | speed of sound, [1] [m/s]
303.15 K | 1428.9 | 1.4245 | 1216.8
308.15 K | 1424.1 | 1.4231 | 1205.8
313.15 K | 1419.4 | 1.421 | 1195
318.15 K | 1414.6 | 1.4195 | 1184.2
323.15 K | 1409.9 | 1.4173 | 1173.6

COC(=O)OC [dimethyl carbonate] + CCCC[n+]1ccn(C)c1.O=S(=O)([N-]S(=O)(=O)C(F)(F)F)C(F)(F)F
Conditions | mass density, [3] [kg/m3] | refractive index, [4] | speed of sound, [3] [m/s]
303.15 K | 1056.8 | 1.3648 | 1177.3
308.15 K | 1050.2 | 1.3629 | 1155.6
313.15 K | 1043.5 | 1.3626 | 1134.2
318.15 K | 1036.8 | 1.3601 | 1113.1
323.15 K | 1030 | 1.3586 | 1092.2

COC(=O)OC [dimethyl carbonate]
Conditions | mass density, [1] [kg/m3] | refractive index, [2] | speed of sound, [1] [m/s]
303.15 K | 1056.8 | 1.3648 | 1177.3
308.15 K | 1050.2 | 1.3629 | 1155.6
313.15 K | 1043.5 | 1.3626 | 1134.2
318.15 K | 1036.8 | 1.3601 | 1113.1
323.15 K | 1030 | 1.3586 | 1092.2
